Where two headings read alike, the source gives them in different places.
Key:
[1] = tested on: 60 cancer cell lines (NCI 60 cancer cell line series); assay: NCI-DTP in vitro cancer screen, sulforhodamine B (SRB) growth inhibition, 48 hour exposure; assay type: cell-based, human; design: key to sensitivity class Ovarian OVCAR-8 CL6005 / sensitivity class Ovarian SK-OV-3 CL6011 / sensitivity class Prostate DU-145 CL11003 / sensitivity class NSCLC NCI-H522 CL1003 / sensitivity class Ovarian IGROV1 CL6010 / sensitivity class Ovarian OVCAR-4 CL6002 / sensitivity class Prostate PC-3(I) CL11001 / sensitivity class Renal A498 CL9013 / sensitivity class Renal SN12C CL9008: sensitivity class: 1 = Low, 2 = Medium, 3 = High
In short: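 Values come from the NCI-DTP screen database: -log GI50, the concentration giving 50% growth inhibition, derived from SRB cell-mass dose-response curves. Each line seeded at its own density, treated day 1 at five ten-fold-spaced doses in duplicate wells, stained after 48 h.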

[2] = tested on: 60 cancer cell lines (NCI 60 cancer cell line series); conditions: cited from earlier work

NC(=O)NO [Hydroxyurea]
classification of cell line as Low(1), Medium(2) or High(3) sensitivity to compound ([1]; Breast BT-549 (CL5013)): 1
classification of cell line as Low(1), Medium(2) or High(3) sensitivity to compound ([1]; Breast HS-578T CL5006): 2
classification of cell line as Low(1), Medium(2) or High(3) sensitivity to compound ([1]; Breast MCF7(I) (CL5001)): 2
classification of cell line as Low(1), Medium(2) or High(3) sensitivity to compound ([1]; Breast MCF7/ADRr (CL5002)): 2
classification of cell line as Low(1), Medium(2) or High(3) sensitivity to compound ([1]; Breast MDA-MB-231 CL5005): 1
classification of cell line as Low(1), Medium(2) or High(3) sensitivity to compound ([1]; Breast MDA-MB-435 (CL5011)): 1
classification of cell line as Low(1), Medium(2) or High(3) sensitivity to compound ([1]; Breast MDA-N CL5012): 1
classification of cell line as Low(1), Medium(2) or High(3) sensitivity to compound ([1]; Breast T-47D (CL5014)): 1
classification of cell line as Low(1), Medium(2) or High(3) sensitivity to compound ([1]; CNS SF-268 CL12014): 2
classification of cell line as Low(1), Medium(2) or High(3) sensitivity to compound ([1]; CNS SF-295 CL12015): 3
classification of cell line as Low(1), Medium(2) or High(3) sensitivity to compound ([1]; CNS SF-539 CL12016): 3
classification of cell line as Low(1), Medium(2) or High(3) sensitivity to compound ([1]; CNS SNB-19 (CL12002)): 1
classification of cell line as Low(1), Medium(2) or High(3) sensitivity to compound ([1]; CNS SNB-75(I) CL12005): 2
classification of cell line as Low(1), Medium(2) or High(3) sensitivity to compound ([1]; CNS U251(I) CL12009): 2
classification of cell line as Low(1), Medium(2) or High(3) sensitivity to compound ([1]; Colon COLO-250 CL4010): 1
classification of cell line as Low(1), Medium(2) or High(3) sensitivity to compound ([1]; Colon HCC-2998 (CL4002)): 2
classification of cell line as Low(1), Medium(2) or High(3) sensitivity to compound ([1]; Colon HCT-15 CL4015): 2
classification of cell line as Low(1), Medium(2) or High(3) sensitivity to compound ([1]; Colon HCT-116 (CL4003)): 2
classification of cell line as Low(1), Medium(2) or High(3) sensitivity to compound ([1]; Colon HT29(I) CL4001): 2
classification of cell line as Low(1), Medium(2) or High(3) sensitivity to compound ([1]; Colon KM12 (CL4017)): 2
classification of cell line as Low(1), Medium(2) or High(3) sensitivity to compound ([1]; Colon SW-620 (CL4009)): 2
classification of cell line as Low(1), Medium(2) or High(3) sensitivity to compound ([1]; Leukemia CCRF-CEM(I) (CL7003)): 3
classification of cell line as Low(1), Medium(2) or High(3) sensitivity to compound ([1]; Leukemia HL-60(I) (CL7008)): 3
classification of cell line as Low(1), Medium(2) or High(3) sensitivity to compound ([1]; Leukemia K562(I) CL7005): 2
classification of cell line as Low(1), Medium(2) or High(3) sensitivity to compound ([1]; Leukemia MOLT-4 (CL7006)): 3
classification of cell line as Low(1), Medium(2) or High(3) sensitivity to compound ([1]; Leukemia RPMI-8226(I) (CL7010)): 3
classification of cell line as Low(1), Medium(2) or High(3) sensitivity to compound ([1]; Leukemia SR CL7019): 3
classification of cell line as Low(1), Medium(2) or High(3) sensitivity to compound ([1]; Melanoma LOX IMVI CL10001): 2
classification of cell line as Low(1), Medium(2) or High(3) sensitivity to compound ([1]; Melanoma M14 (CL10014)): 2
classification of cell line as Low(1), Medium(2) or High(3) sensitivity to compound ([1]; Melanoma MALME-3M CL10002): 2
classification of cell line as Low(1), Medium(2) or High(3) sensitivity to compound ([1]; Melanoma SK-MEL-2 (CL10005)): 1
classification of cell line as Low(1), Medium(2) or High(3) sensitivity to compound ([1]; Melanoma SK-MEL-5 (CL10007)): 2
classification of cell line as Low(1), Medium(2) or High(3) sensitivity to compound ([1]; Melanoma SK-MEL-28 (CL10008)): 1
classification of cell line as Low(1), Medium(2) or High(3) sensitivity to compound ([1]; Melanoma UACC-62 (CL10020)): 3
classification of cell line as Low(1), Medium(2) or High(3) sensitivity to compound ([1]; Melanoma UACC-257 (CL10021)): 1
classification of cell line as Low(1), Medium(2) or High(3) sensitivity to compound ([1]; NSCLC A549/ATCC (CL1004)): 2
classification of cell line as Low(1), Medium(2) or High(3) sensitivity to compound ([1]; NSCLC EKVX (CL1008)): 1
classification of cell line as Low(1), Medium(2) or High(3) sensitivity to compound ([1]; NSCLC HOP-62 (CL1026)): 2
classification of cell line as Low(1), Medium(2) or High(3) sensitivity to compound ([1]; NSCLC HOP-92 (CL1029)): 2
classification of cell line as Low(1), Medium(2) or High(3) sensitivity to compound ([1]; NSCLC NCI-H226 CL1013): 2
sensitivity class NSCLC NCI-H23(I) CL1001 ([1]; cell line NSCLC NCI-H23(I), CL1001): 2
sensitivity class NSCLC NCI-H332M CL1017 ([1]; cell line NSCLC NCI-H332M, CL1017): 1
sensitivity class NSCLC NCI-H460 CL1021 ([1]; cell line NSCLC NCI-H460, CL1021): 3
sensitivity class NSCLC NCI-H522 CL1003 ([1]; cell line NSCLC NCI-H522, CL1003): 2
sensitivity class Ovarian IGROV1 CL6010 ([1]; cell line Ovarian IGROV1, CL6010): 2
sensitivity class Ovarian OVCAR-3 CL6001 ([1]; cell line Ovarian OVCAR-3, CL6001): 2
sensitivity class Ovarian OVCAR-4 CL6002 ([1]; cell line Ovarian OVCAR-4, CL6002): 1
sensitivity class Ovarian OVCAR-5 CL6003 ([1]; cell line Ovarian OVCAR-5, CL6003): 2
sensitivity class Ovarian OVCAR-8 CL6005 ([1]; cell line Ovarian OVCAR-8, CL6005): 2
sensitivity class Ovarian SK-OV-3 CL6011 ([1]; cell line Ovarian SK-OV-3, CL6011): 1
sensitivity class Prostate DU-145 CL11003 ([1]; cell line Prostate DU-145, CL11003): 2
sensitivity class Prostate PC-3(I) CL11001 ([1]; cell line Prostate PC-3(I), CL11001): 2
sensitivity class Renal 786-O CL9018 ([1]; cell line Renal 786-O, CL9018): 2
sensitivity class Renal A498 CL9013 ([1]; cell line Renal A498, CL9013): 2
sensitivity class Renal ACHN CL9023 ([1]; cell line Renal ACHN, CL9023): 3
sensitivity class Renal CAKI-1 CL9015 ([1]; cell line Renal CAKI-1, CL9015): 3
sensitivity class Renal RXF-393 CL9016 ([1]; cell line Renal RXF-393, CL9016): 2
sensitivity class Renal SN12C CL9008 ([1]; cell line Renal SN12C, CL9008): 2
sensitivity class Renal TK10 CL9024 ([1]; cell line Renal TK10, CL9024): 1
sensitivity class Renal UO-31 CL9004 ([1]; cell line Renal UO-31, CL9004): 2
-Log (GI50) ([2]; Breast BT-549 (CL5013)): 2.8
-Log (GI50) ([2]; Breast HS-578T CL5006): 3.1
-Log (GI50) ([2]; Breast MCF7(I) (CL5001)): 3.5
-Log (GI50) ([2]; Breast MCF7/ADRr (CL5002)): 3.5
-Log (GI50) ([2]; Breast MDA-MB-231 CL5005): 2.6
-Log (GI50) ([2]; Breast MDA-MB-435 (CL5011)): 2.7
-Log (GI50) ([2]; Breast MDA-N CL5012): 2.7
-Log (GI50) ([2]; Breast T-47D (CL5014)): 2.8
-Log (GI50) ([2]; CNS SF-268 CL12014): 3.3
-Log (GI50) ([2]; CNS SF-295 CL12015): 3.5
-Log (GI50) ([2]; CNS SF-539 CL12016): 3.5
-Log (GI50) ([2]; CNS SNB-19 (CL12002)): 2.8
-Log (GI50) ([2]; CNS SNB-75(I) CL12005): 3.1
-Log (GI50) ([2]; CNS U251(I) CL12009): 3.3
-Log (GI50) ([2]; Colon COLO-250 CL4010): 2.8
-Log (GI50) ([2]; Colon HCC-2998 (CL4002)): 3.1
-Log (GI50) ([2]; Colon HCT-15 CL4015): 3.1
-Log (GI50) ([2]; Colon HCT-116 (CL4003)): 3.0
-Log (GI50) ([2]; Colon HT29(I) CL4001): 3.3
-Log (GI50) ([2]; Colon KM12 (CL4017)): 3.1
-Log (GI50) ([2]; Colon SW-620 (CL4009)): 3.0
-Log (GI50) ([2]; Leukemia CCRF-CEM(I) (CL7003)): 4.3
-Log (GI50) ([2]; Leukemia HL-60(I) (CL7008)): 4.7
-Log (GI50) ([2]; Leukemia K562(I) CL7005): 3.0
-Log (GI50) ([2]; Leukemia MOLT-4 (CL7006)): 3.8
-Log (GI50) ([2]; Leukemia RPMI-8226(I) (CL7010)): 3.6
-Log (GI50) ([2]; Leukemia SR CL7019): 3.7
-Log (GI50) ([2]; Melanoma LOX IMVI CL10001): 3.2
-Log (GI50) ([2]; Melanoma M14 (CL10014)): 3.2
-Log (GI50) ([2]; Melanoma MALME-3M CL10002): 2.9
-Log (GI50) ([2]; Melanoma SK-MEL-2 (CL10005)): 2.8
-Log (GI50) ([2]; Melanoma SK-MEL-5 (CL10007)): 3.2
-Log (GI50) ([2]; Melanoma SK-MEL-28 (CL10008)): 2.7
-Log (GI50) ([2]; Melanoma UACC-62 (CL10020)): 3.6
-Log (GI50) ([2]; Melanoma UACC-257 (CL10021)): 2.8
-Log (GI50) ([2]; NCSLC NCI-H522 CL1003): 3.1
-Log (GI50) ([2]; NSCLC A549/ATCC (CL1004)): 3.3
-Log (GI50) ([2]; NSCLC EKVX (CL1008)): 2.8
-Log (GI50) ([2]; NSCLC HOP-62 (CL1026)): 3.0
-Log (GI50) ([2]; NSCLC HOP-92 (CL1029)): 3.1
-Log (GI50) ([2]; NSCLC NCI-H23(I) CL1001): 3.1
-Log (GI50) ([2]; NSCLC NCI-H226 CL1013): 3.1
-Log (GI50) ([2]; NSCLC NCI-H332M CL1017): 2.8
-Log (GI50) ([2]; NSCLC NCI-H460 CL1021): 3.5
-Log (GI50) ([2]; Ovarian IGROV1 CL6010): 3.0
-Log (GI50) ([2]; Ovarian OVCAR-3 CL6001): 3.0
-Log (GI50) ([2]; Ovarian OVCAR-4 CL6002): 2.8
-Log (GI50) ([2]; Ovarian OVCAR-5 CL6003): 3.2
-Log (GI50) ([2]; Ovarian OVCAR-8 CL6005): 3.3
-Log (GI50) ([2]; Ovarian SK-OV-3 CL6011): 2.8
-Log (GI50) ([2]; Prostate DU-145 CL11003): 3.1
-Log (GI50) ([2]; Prostate PC-3(I) CL11001): 3.0
-Log (GI50) ([2]; Renal 786-O CL9018): 3.5
-Log (GI50) ([2]; Renal A498 CL9013): 3.2
-Log (GI50) ([2]; Renal ACHN CL9023): 4.0
-Log (GI50) ([2]; Renal CAKI-1 CL9015): 3.6
-Log (GI50) ([2]; Renal RXF-393 CL9016): 3.2
-Log (GI50) ([2]; Renal SN12C CL9008): 3.1
-Log (GI50) ([2]; Renal TK10 CL9024): 2.7
-Log (GI50) ([2]; Renal UO-31 CL9004): 3.3

From patent US20020051978A1, “Methods and compositions for the identification, assessment, prevention and therapy of human cancers” (priority 2000, published 2002)
